Experimental data from patent US11472846B2, “Compositions and methods for treating diseases by inhibiting exosome release” (priority 2016, dated 2022).

How the values were obtained:
Assay type in all cases: cell-based, human
[1] = tested on: MCF-7 breast cancer cells; assay: Exosome release by acetylcholinesterase (AchE) assay, MCF-7; conditions: for average AChE concentration days 1 to 5: MCF-7 cells, five-day treatment
Method: 1-6. Exosome isolation and purification. Exosomes were isolated from breast cancer cells by differential centrifugation as previously described (Ali SA. et al., 2010). Untreated tumor cells were used as a control. Briefly, the above treated and untreated cell culture supernatants were centrifuged at 400×g for 10 minutes. The supernatants were transferred to a clear tube and centrifuged at 10,000×g for 30 minutes. The supernatants from the second spin were ultracentrifuged at 200,000×g for 2 hours to pellet exosomes. Finally, the exosome pellets were re-suspended with PBS and stored at 4° C. until used for analysis.
1-7. Exosome characterization by acetylcholinesterase (AchE) assay. Purified exosomes were quantitated by measurement of AchE as described (Ellman et al., 1961). Briefly, a 100 mM dithibionitrobenzoic (DTNB) solution was prepared for use as a stock color indicator, and a 28.9 mg/mL acetylthiocholine iodide in PBS solution was prepared as a stock substrate. The stock substrate stock can be stored at −20° C. up to one month, while the color indicator can be stored at 4° C. for two weeks. A working solution was prepared by mixing 10 mL of PBS with 200 μL of Substrate and 500 μl of DTNB. 50 μL of each exosome sample was transferred to 96 well microtitre plates, and a standard curve was prepared using AchE from 0.98 mU/mL to 2000 mU/mL. After 50 μL of standards were added into separate wells, 200 μL of the working solution was added to all wells. After 20 min incubation, AchE activity was measured at 450 nm using a SpectroMax M5 fluorimeter.
7-5. Exosome isolation and purification. Exosomes were isolated from breast cancer cells and leukemia cells using the ExoQuick-TC Exosome Precipitation Kit (System Biosciencences [SBI], Mountain View Calif.) or the miRCURY Exosome Isolation Kit (EXIQON, Woburn, Mass.) according to the manufacturer's instructions. Untreated tumor cells were used as a control. Briefly, treated and untreated cell culture supernatants (10 mL) were centrifuged at 3000×g for 15 minutes. The resulting supernatants were transferred to a clear tube, 2 mL of ExoQuick-TC buffer was added, mixed and incubated overnight at 4° C. Following the incubation, the sample contents were centrifuged at 1500×g for 30 minutes, the supernatants were aspirated off, the pellets were centrifuged at 1500×g for 5 minutes and any further traces of supernatant were removed (SBI). Alternatively, treated and untreated cell culture supernatants were centrifuged at 10,000×g for 5 minutes to remove cell debris, supernatants (10 ml) were transferred into new tubes, and 4 mL of precipitation buffer (EXIQON) was added, and the contents were mixed and incubated at 4° C. overnight. Following the incubation, the sample contents were centrifuged at 10,000×g for 30 minutes (EXIQON). Exosome-containing pellets were re-suspended in PBS and stored at 4° C. or −80° C.
7-6. Exosome characterization by acetylcholinesterase (AchE) assay. Purified exosomes were quantitated by measurement of AchE as previously described (Huang et al., Oncotarget, 2017. 8(7): pp. 11302-11315). Briefly, 100 mM dithibionitrobenzoic (DTNB) was prepared as a stock color indicator, and prepared a stock substrate containing 28.9 mg/mL of acetylthiocholine iodide in PBS. Substrate stock can be stored at −20° C. up to one month; the stock color indicator can be stored at 4° C. for two weeks. A working solution was prepared by mixing 10 mL of PBS with 200 μL of substrate and 500 μl of DTNB. 50 μL of each exosome sample was transferred to a 96 well microtitre plate, and a standard curve for AchE concentrations was prepared using AchE from 0.98 mU/mL to 2000 mU/mL. After 50 μL of standards were added into separate wells, 200 μL of the working solution was added to each well. After a 20 min incubation, AchE activity was measured at 450 nm using a SpectroMax M5 fluorometer (FIG. 11).

[2] = tested on: exosomes from MCF-7 cells; assay: Western blot of exosomal proteins (Alix, vimentin, mortalin), MCF-7; conditions: 48 hr treatment, vs negative controls
Method: (§1) 7-7. Protein analysis by Western blotting. Exosomes were isolated from cell culture supernatants as described above. Protein concentrations were determined by measuring absorbance at 280 nm (Nanodrop 2000). Cultured cells were treated with PEG-SMR-Clu, SMR-CPP peptides, MKT-077, Omeprazole or DMA at 37° C. for 48 hr. To evaluate mortalin, vimentin and exosome expression, Western blot analysis was performed using anti-mortalin (Grp-75), anti-Vimentin and anti-Alix antibodies, respectively (FIG. 12).
(§2) Exosomes and cell lysates were prepared by incubating 5-10 min at 95° C. in sample buffer. The lysates were subjected to SDS-PAGE under reducing conditions (150 mM DTT) in 4-20% Criterion™ TGX™ precast gels (BioRad, Hercules, Calif.) and then transferred onto a nitrocellulose membrane (Bio-Rad, Hercules, Calif.). Nitrocellulose membranes were blocked with 5% skim milk (MedSupply, Atlanta, Ga.) in TBS containing 0.05% Tween 20 (TBST) for 1 h at room temperature. The membranes were treated with anti-mortalin (Grp-75) mAb or anti-α-tubulin mAb for cell lysates (FIG. 15, Panels A and B) or with anti-Alix and anti-vimentin or anti-mortalin for exosomes (FIG. 12), followed by peroxidase-conjugated goat anti-mouse IgG. Bands were developed with an ECL chemiluminescent substrate (Santa Cruz Biotechnology, Santa Cruz, Calif.) and exposed to an ImageQuant LAS 4000 imaging system (GE Healthcare, Piscataway, N.J. 08854).

MDA-MB-231 exosomes = assay: Western blot of exosomal proteins (Alix, vimentin, mortalin), MDA-MB-231; conditions: MDA-MB-231 cells, 48 hr treatment
Method: as §1, §2

[3] = tested on: MCF-7 breast cancer cells; assay: InnoCyte cell migration assay, MCF-7; conditions: MCF-7 cells, 1120 nM SMR peptide or 3 μM Latrunculin A, 24 hours
Method: 7-12. Cell migration assay. Cell migration assays were performed using the InnoCyte Cell Migration Assay (EMD Millipore Corporation, Temecula, Calif.) according to the manufacturer's instructions. Briefly, cell migration was monitored in the presence and absence of SMRwt peptides or latrunculin A (positive control inhibitor), which were added to the lower chamber of a 96-well plate. MCF-7 and MDA-MB-231 breast cancer cells and non-tumorigenic MCF-10A breast cells were harvested by 0.25% Trypsin-EDTA (Life Technologies) release and resuspended at 250,000500,000 cells/ml in serum-free RPMI 1640 media. A total of 25,000-50,000 cells was added to the upper chamber and allowed to migrate through an 8-μm pore-size membrane for 24 hours at 37° C. in a 5% CO2 atmosphere. Cells that migrated through the membrane were detached and labeled with Calcein-AM fluorescent dye. Fluorescence was measured using a Fluorescence Plate Reader (Molecular Devices, Sunnyvale, Calif.) with an excitation wavelength of 485 nm and an emission wavelength of 515 nm. The experiment was repeated in triplicate, and each conditioned experiment was performed in quadruplicate.

Row | Sequence | average AChE concentration days 1 to 5 [1] | Alix expression in exosomes [2] | Mortalin expression in exosomes [2] | Vimentin expression in exosomes [2] | Alix expression in exosomes (MDA-MB-231 exosomes) | Mortalin expression in exosomes (MDA-MB-231 exosomes) | Vimentin expression in exosomes (MDA-MB-231 exosomes) | reduced migration by [3] | AchE activity in exosomes ([1]; MCF-7 cells treated 48 hr, control exosomes 113.49 mU/mL)
1 | VGFPVAAVGFPVGRKKRRQRRRPPQ [SMRwt-CPP] | 22 mU/mL | significantly decreased | no significant changes | significantly decreased | significantly decreased | significantly decreased | significantly decreased | 71.87% | 
2 | NXNVGFPVAAVGFPVHPLSKHPYWSQP (SEQ ID NO: 37) [PEG-SMRwt-Clu] | 31 mU/mL | significantly decreased | significantly decreased | significantly decreased | significantly decreased | significantly decreased | significantly decreased | 75.74% | 41.95 mU/mL
